The record followed here is article PMC7827406, “Structure–Activity Relationship (SAR) Study of Spautin-1 to Entail the Discovery of Novel NEK4 Inhibitors” (International Journal of Molecular Sciences, 2021).

What all share (assay): biochemical
Holding throughout (parameters): Eurofins KinaseProfiler full panel at Km ATP, residual kinase activity (%) relative to DMSO

The target in one assay is T1, ASK1(h) (Homo sapiens, UniProt Q99683).
T1 construct: gene MAP3K5
T1 sequence (Q99683 1-1374): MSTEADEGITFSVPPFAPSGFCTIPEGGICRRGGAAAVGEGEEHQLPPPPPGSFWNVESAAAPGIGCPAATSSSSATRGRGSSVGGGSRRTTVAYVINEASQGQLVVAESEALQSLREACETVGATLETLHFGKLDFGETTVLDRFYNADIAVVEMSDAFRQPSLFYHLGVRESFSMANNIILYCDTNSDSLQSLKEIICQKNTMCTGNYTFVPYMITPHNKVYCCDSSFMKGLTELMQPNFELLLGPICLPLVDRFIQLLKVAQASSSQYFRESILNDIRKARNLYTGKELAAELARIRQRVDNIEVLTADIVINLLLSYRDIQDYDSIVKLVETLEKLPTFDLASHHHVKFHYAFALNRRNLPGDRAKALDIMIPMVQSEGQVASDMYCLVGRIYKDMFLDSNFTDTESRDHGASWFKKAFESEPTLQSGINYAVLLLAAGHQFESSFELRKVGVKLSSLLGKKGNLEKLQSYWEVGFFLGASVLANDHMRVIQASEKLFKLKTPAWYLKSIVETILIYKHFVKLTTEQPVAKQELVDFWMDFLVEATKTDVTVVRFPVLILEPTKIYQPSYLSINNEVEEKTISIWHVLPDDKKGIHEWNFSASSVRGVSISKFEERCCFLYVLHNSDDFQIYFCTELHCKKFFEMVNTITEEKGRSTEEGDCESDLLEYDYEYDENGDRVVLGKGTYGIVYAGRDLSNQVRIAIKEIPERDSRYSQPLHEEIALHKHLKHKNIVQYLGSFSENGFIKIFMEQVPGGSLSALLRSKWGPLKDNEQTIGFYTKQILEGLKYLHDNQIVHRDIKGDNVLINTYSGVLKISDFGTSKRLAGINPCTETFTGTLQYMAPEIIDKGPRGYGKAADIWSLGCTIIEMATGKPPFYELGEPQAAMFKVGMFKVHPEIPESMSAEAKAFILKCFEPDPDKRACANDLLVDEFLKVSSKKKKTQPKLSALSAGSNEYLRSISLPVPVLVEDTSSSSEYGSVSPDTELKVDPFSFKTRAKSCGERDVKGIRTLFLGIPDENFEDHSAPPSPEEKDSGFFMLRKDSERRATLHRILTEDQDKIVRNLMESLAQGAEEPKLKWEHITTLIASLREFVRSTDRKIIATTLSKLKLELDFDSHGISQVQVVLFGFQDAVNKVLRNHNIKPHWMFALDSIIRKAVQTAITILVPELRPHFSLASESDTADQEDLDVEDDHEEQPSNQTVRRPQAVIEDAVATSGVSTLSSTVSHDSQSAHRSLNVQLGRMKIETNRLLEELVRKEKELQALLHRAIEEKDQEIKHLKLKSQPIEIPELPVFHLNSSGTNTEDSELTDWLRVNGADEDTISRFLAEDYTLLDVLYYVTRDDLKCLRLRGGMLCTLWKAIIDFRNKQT
In outline: (§1)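 Two 10 µM single-concentration screens were run: a competition-binding screen, in which DNA-tagged kinase bound to immobilized ligands was quantified by qPCR, and a radiometric activity panel at Km ATP. Each is expressed as residual kinase activity (%).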

The target in another assay is T2, FAK(h) (Homo sapiens, UniProt Q05397).
T2 construct: gene PTK2
T2 sequence (Q05397 whole entry): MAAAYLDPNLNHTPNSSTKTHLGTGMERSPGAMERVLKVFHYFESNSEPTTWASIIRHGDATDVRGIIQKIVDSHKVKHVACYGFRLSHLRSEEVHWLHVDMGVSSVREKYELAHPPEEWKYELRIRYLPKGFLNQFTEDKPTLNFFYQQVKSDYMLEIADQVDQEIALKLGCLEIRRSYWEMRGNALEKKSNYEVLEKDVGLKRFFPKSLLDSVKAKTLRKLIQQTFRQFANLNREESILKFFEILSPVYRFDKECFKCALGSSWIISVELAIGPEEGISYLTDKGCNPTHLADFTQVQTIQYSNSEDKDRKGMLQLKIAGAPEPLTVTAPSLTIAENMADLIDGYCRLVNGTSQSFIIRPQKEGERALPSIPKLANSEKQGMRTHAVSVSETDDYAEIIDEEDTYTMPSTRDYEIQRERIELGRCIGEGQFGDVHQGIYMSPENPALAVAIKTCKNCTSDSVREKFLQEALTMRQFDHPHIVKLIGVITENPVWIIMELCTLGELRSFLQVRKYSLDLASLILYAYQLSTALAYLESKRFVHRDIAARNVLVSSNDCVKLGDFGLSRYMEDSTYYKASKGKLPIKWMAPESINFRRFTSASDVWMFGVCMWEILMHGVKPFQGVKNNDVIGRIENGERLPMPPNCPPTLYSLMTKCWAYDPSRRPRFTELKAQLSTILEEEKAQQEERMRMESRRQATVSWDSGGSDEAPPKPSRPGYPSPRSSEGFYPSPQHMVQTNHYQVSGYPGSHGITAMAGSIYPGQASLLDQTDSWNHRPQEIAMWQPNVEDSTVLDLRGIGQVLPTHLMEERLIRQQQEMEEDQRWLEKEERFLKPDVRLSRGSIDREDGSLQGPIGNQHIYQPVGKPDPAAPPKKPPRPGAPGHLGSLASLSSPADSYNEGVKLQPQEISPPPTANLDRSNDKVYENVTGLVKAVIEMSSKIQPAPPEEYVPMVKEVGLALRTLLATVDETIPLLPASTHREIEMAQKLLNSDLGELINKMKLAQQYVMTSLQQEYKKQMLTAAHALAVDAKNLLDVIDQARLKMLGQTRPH
In outline:
as §1

The target of a further assay is T3, IGF-1R(h) (Homo sapiens, UniProt P08069).
T3 construct: gene IGF1R
T3 sequence (P08069 whole entry): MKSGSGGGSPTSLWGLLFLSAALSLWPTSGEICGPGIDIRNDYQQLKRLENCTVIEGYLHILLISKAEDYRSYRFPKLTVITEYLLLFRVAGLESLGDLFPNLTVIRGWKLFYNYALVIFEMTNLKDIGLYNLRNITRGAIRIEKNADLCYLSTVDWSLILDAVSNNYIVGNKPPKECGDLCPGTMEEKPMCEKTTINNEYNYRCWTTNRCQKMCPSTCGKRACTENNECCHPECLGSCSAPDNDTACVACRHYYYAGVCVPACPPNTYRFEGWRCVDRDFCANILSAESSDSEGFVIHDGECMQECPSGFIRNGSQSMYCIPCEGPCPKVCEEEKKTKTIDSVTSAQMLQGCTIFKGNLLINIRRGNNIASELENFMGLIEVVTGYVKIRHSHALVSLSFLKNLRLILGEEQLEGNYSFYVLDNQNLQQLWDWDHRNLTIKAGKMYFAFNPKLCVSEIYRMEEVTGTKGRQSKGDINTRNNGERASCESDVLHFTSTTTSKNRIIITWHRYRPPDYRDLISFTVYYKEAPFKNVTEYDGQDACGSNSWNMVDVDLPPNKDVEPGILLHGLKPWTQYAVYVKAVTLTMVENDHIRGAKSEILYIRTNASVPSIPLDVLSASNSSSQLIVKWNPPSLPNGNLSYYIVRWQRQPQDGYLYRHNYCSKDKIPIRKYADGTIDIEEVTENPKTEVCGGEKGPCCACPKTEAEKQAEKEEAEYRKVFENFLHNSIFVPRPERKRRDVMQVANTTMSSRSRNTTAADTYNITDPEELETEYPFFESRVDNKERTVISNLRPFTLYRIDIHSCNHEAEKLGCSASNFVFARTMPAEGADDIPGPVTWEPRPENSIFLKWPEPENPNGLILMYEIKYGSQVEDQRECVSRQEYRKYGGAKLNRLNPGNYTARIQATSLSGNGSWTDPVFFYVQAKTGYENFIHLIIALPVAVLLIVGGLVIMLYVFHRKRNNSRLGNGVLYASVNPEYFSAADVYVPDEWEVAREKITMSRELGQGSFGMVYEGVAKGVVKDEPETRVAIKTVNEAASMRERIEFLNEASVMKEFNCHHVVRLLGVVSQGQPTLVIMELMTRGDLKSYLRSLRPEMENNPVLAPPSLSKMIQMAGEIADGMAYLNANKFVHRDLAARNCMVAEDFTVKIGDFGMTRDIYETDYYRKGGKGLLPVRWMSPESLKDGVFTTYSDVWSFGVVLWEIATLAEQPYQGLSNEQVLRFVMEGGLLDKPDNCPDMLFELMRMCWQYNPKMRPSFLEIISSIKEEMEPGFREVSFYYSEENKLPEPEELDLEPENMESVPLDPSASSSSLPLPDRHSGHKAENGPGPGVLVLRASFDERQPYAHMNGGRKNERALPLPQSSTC
In outline: as §1

Another assay concerns the target T4, NIM1(h) (Homo sapiens, UniProt Q8IY84).
T4 construct: gene NIM1K
In outline:
as §1

The target of another assay is T5, PKAcβ(h) (Homo sapiens, UniProt P22694).
T5 construct: gene PRKACB
In outline:
as §1

The next assay deals with T6, Ros(h) (Homo sapiens, UniProt P08922).
T6 construct: gene ROS1
T6 sequence (P08922 whole entry): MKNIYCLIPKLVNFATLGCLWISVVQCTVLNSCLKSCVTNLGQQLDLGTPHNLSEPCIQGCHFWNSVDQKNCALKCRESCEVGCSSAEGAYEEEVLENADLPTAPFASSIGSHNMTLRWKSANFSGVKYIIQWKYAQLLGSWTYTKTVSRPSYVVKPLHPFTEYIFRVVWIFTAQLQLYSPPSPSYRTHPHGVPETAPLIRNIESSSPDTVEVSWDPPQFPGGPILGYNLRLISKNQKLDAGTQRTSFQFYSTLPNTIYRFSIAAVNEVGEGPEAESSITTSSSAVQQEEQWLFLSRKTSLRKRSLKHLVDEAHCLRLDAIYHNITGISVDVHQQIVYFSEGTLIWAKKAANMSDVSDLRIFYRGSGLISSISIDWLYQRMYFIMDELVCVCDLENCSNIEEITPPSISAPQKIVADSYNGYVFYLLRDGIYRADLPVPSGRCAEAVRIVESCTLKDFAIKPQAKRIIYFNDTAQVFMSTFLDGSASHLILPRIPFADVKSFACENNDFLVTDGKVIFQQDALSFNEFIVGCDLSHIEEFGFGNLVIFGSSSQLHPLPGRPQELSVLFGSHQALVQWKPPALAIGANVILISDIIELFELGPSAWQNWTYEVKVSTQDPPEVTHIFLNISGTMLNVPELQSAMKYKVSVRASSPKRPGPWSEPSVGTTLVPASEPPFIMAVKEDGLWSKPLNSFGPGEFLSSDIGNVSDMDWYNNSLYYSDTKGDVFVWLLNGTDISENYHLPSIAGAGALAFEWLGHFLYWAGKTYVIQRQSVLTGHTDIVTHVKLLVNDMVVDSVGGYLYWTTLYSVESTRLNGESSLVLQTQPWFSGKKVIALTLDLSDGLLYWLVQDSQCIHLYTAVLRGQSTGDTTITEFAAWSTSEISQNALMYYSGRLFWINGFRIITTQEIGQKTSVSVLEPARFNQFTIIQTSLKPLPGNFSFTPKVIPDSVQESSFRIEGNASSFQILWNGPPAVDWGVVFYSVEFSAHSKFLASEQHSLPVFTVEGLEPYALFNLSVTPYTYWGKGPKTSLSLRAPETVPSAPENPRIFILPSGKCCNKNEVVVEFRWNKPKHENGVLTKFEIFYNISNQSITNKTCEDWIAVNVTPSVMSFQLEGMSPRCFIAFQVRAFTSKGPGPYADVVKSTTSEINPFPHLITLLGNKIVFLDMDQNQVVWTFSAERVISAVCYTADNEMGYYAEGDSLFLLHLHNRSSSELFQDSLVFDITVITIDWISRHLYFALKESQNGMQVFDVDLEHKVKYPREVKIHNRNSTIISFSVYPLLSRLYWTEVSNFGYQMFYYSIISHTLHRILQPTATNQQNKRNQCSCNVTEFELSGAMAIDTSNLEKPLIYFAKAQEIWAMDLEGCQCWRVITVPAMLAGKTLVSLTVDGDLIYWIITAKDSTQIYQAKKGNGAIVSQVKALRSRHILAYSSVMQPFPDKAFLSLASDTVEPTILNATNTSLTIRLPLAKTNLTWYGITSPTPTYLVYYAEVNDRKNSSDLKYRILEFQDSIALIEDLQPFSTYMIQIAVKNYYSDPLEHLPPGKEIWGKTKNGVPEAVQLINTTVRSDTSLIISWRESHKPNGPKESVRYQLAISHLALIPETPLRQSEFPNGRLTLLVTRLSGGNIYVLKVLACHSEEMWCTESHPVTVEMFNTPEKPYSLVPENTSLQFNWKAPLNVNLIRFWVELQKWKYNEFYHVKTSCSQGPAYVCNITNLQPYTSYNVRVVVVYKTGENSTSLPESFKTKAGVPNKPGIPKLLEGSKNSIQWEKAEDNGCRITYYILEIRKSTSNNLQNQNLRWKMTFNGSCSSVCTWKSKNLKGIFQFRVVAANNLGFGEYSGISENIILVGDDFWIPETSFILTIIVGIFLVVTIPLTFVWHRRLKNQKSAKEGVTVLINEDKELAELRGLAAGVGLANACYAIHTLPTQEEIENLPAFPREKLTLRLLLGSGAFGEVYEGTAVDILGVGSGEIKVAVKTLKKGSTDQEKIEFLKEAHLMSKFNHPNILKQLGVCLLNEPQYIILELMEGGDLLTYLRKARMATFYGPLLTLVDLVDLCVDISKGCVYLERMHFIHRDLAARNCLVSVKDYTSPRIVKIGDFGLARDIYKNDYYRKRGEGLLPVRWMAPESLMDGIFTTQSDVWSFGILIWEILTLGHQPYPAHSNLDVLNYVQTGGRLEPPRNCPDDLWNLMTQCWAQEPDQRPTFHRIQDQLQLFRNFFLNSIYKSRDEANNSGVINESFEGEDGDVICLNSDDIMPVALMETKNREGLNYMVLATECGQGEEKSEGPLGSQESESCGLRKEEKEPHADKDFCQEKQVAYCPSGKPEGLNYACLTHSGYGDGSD
In outline: as §1

For a further assay, the target named is WNK3(h) (Homo sapiens, UniProt Q9BYP7). In outline:
as §1

[1] abbreviates: read-out: Residual activity (%) Spautin-1 5aa.
The mark [2] stands for this setting: read-out: Residual activity (%) 5as.
Setting [3] is: read-out: Residual activity (%) 5at.
The mark [4] stands for this setting: read-out: Residual activity (%) 5ay.

Read-outs that look alike come from different tables or passages of the source.

For the compound `Fc1ccc(CNc2ncnc3ccc(F)cc23)cc1` [5aa, 6-Fluoro-N-(4-fluorobenzyl)-4-Quinazolinamine], the remaining activity at 10 µM at ASK1(h) (setting [1]) came to 95%; at FAK(h) (setting [1]) it was 84%; at IGF-1R(h) (setting [1]) it was 90%; on NIM1(h) (setting [1]), 108%; on PKAcβ(h) (setting [1]), 87%; on Ros(h) (setting [1]) it was 95%. In addition, the remaining activity at 10 µM at WNK3(h) (setting [1]) stood at 90%.
As for `Fc1ccc(CCNc2ncnc3ccc(F)cc23)cc1` [5as, 6-Fluoro-N-[2-(4-Fluorophenyl)Ethyl]-4-Quinazolinamine], the remaining activity at 10 µM was determined as 85% on ASK1(h) (setting [2]); 88% on FAK(h) (setting [2]); 83% on IGF-1R(h) (setting [2]); 113% at NIM1(h) (setting [2]); 97% on PKAcβ(h) (setting [2]); 101% at Ros(h) (setting [2]). The remaining activity at 10 µM on WNK3(h) (setting [2]) came out at 98%.
With `Fc1ccc2ncnc(NCCc3ccc(Cl)cc3)c2c1` [5at, N-[2-(4-Chlorophenyl)Ethyl]-6-Fluoro-4-Quinazolinamine], the remaining activity at 10 µM was 80% at ASK1(h) (setting [3]); 83% on FAK(h) (setting [3]); 83% at IGF-1R(h) (setting [3]); 110% on NIM1(h) (setting [3]); 107% at PKAcβ(h) (setting [3]); 105% at Ros(h) (setting [3]). Further, the remaining activity at 10 µM at WNK3(h) (setting [3]) was found to be 86%.
Consider `COc1ccc2ncnc(Nc3cccc(F)c3)c2c1` [5ay, N-(3-Fluorophenyl)-6-Methoxy-4-Quinazolinamine], for which the remaining activity at 10 µM on ASK1(h) (setting [4]) was 99%; at FAK(h) (setting [4]), 84%; at IGF-1R(h) (setting [4]) it was 101%; at NIM1(h) (setting [4]), 97%; on PKAcβ(h) (setting [4]), 85%; on Ros(h) (setting [4]), 101%. Besides, at WNK3(h) (setting [4]), the remaining activity at 10 µM amounted to 104%.
